Source: article PMC9782245, “Synthesis and Structural Optimization of 2,7,9-Trisubstituted purin-8-ones as FLT3-ITD Inhibitors” (International Journal of Molecular Sciences, 2022)
“And” between values parts separate entries of the source, which are not always exact repeats. Equal values may be shown once.

Experiments:
MV4-11 cells [1] = assay: Resazurin-based viability assay, MV4-11; format: cell-based, Human; details: Homo sapiens, MV4-11; 72 h, resazurin; at least duplicate experiments
Excerpt: (§1) In parallel to kinase assays, we measured the effect of compounds on the viability of cancer cell lines MV4-11 and K562 using a resazurin-based assay. MV4-11 is an AML cell line dependent on a constitutively activated FLT3-ITD kinase with high sensitivity to FLT3 inhibition, K562 cells (chronic myelogenous leukemia) are independent on FLT3.
(§2) Human cell lines were obtained from the European Collection of Authenticated Cell Cultures (K562) and Cell lines service (MV4-11) and were cultivated according to the provider’s instructions. Briefly, cells were maintained in RPMI-1640 (MV4-11) or DMEM (K562) supplemented with 10% fetal bovine serum, penicillin (100 U/mL), and streptomycin (0.1 mg/mL) at 37 °C in 5% CO2. For the viability assays, cells were treated in triplicate with six different doses of each compound for 72 h. After treatments, the resazurin (Sigma Aldrich, St. Louis, MO, USA) solution was added for 4 h, and the fluorescence of resorufin corresponding to live cells was measured at 544/590 nm (excitation/emission) using a Fluoroskan Ascent microplate reader (Labsystems). The GI50 value, the drug concentration lethal to 50% of the cells, was calculated from the dose-response curves that resulted from the assays.

K562 cells [2] = assay: Resazurin-based viability assay, K562; format: cell-based; details: Homo sapiens, 72 h, at least duplicate experiments
Excerpt: as §1, §2

CDK2/E = CDK2/E (Homo sapiens, UniProt P24941); assay: Kinase inhibition assay CDK2/E; format: biochemical; details: at least duplicate experiments; read-out: IC50 CDK2/E
Procedure: (§3) Newly prepared compounds 12–15 were assayed for inhibition of FLT3-ITD kinase as well as CDK4 and CDK2, known off-targets of structurally related compounds. We observed that CDK4 was sensitive to nearly all compounds with IC50 values in mid-nanomolar values.
(§4) CDK/cyclin complexes and FLT3 kinases were assayed as previously described. Protein kinase selectivity was evaluated at a single concentration (1 µM) by screening against 30 enzymes at Eurofins Discovery (France).

CDK4/D1 = CDK4/D1 (Homo sapiens, UniProt P11802); assay: Kinase inhibition assay CDK4/D1; format: biochemical; details: at least duplicate experiments; read-out: IC50 CDK4/D1
Procedure: as §3, §4

FLT3-ITD = biological target: T1, FLT3-ITD (Homo sapiens, UniProt P36888, ITD); assay: Kinase inhibition assay FLT3-ITD; format: biochemical; details: at least duplicate experiments; read-out: IC50 FLT3-ITD
T1 sequence (P36888 27-993): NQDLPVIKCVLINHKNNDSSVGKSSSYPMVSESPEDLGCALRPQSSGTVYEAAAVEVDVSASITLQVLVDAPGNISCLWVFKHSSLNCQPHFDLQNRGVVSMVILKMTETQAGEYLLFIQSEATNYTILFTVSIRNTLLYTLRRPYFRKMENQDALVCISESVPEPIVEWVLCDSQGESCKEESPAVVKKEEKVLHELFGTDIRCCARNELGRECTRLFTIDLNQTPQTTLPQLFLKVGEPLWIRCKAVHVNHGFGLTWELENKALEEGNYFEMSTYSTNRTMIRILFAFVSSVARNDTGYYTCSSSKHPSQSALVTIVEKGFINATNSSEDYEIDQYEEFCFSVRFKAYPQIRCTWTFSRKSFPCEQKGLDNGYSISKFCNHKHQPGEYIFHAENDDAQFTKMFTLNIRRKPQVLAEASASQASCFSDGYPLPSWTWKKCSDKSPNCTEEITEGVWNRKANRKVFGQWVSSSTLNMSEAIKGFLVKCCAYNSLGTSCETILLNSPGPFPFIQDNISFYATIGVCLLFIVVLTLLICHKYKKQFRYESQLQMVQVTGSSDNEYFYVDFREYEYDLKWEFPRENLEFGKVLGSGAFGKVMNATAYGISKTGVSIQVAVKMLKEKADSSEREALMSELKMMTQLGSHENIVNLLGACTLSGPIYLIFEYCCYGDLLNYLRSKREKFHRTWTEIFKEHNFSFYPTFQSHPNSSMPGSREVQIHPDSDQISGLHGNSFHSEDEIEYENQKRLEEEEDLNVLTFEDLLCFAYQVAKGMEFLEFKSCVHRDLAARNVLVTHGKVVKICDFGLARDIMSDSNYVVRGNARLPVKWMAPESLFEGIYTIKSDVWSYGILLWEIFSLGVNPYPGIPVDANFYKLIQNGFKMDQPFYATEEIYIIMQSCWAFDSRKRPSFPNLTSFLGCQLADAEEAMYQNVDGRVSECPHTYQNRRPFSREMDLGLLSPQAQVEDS
Procedure: as §3, §4

K562 cells [3] = assay: Flow cytometric cell cycle analysis, K562; format: cell-based, Human; details: 24 h; for effect on cell cycle (G1 arrest) in K562: 200 nM
Procedure: (§5) FLT3 inhibition causes G1-cell cycle arrest in FLT3-dependent cell lines such as MV4-11; we, therefore, performed flow cytometric analysis to evaluate cell cycle changes in MV4-11 and K562 cell lines treated with 200 nM compounds for 24 h. […] Specifically, 18 compounds arrested >85% of cells in the G1 phase, which is >30% cells in the G1 phase of the cell cycle than in control cells (Figure 4A).
(§6) Finally, we performed flow cytometric analysis with different concentrations of 15a in MV4-11 and MOLM13 (another FLT-ITD positive cell line) and K562 cell lines treated for 24 h (Figure 5).
(§7) Asynchronously growing cells were seeded into a 96-well plate and, after a preincubation period, treated with tested compounds for 24 h. The treated cells were stained directly (or after trypsinization for the adherent cells) with the 5× staining solution (17 mM trisodium citrate dihydrate, 0.5% IGEPAL CA-630, 7.5 mM spermine tetrahydrochloride, and 2.5 mM Tris; pH 7.6 containing […] propidium iodide). After the staining, DNA content was analyzed using flow cytometry using a 488 nm laser (BD FACS Verse with software BD FACSuite^TM, version 1.0.6). Cell cycle distribution was analyzed using ModFit LT (Verity Software House, version 5.0). Palbociclib, trilaciclib, and quizartinib were purchased from MedChemExpress, Monmouth Junction, NJ, USA.

MV4-11 cells [4] = assay: Flow cytometric cell cycle analysis, MV4-11; format: cell-based, Human; details: 24 h; for effect on cell cycle (G1 arrest) in MV4-11: 200 nM
Procedure: as §5, §6, §7

MOLM13 cells = assay: Flow cytometric cell cycle analysis, MOLM13; format: cell-based; details: increasing doses, 24 h
Procedure: as §6
as §7, with “5.0).” for “5.0). Palbociclib, trilaciclib, and quizartinib were purchased from MedChemExpress, Monmouth Junction, NJ, USA.”

[5] = system: oncogenic variants of FLT3; design: method as in PMID 28418845; details: cited from earlier work

Sequence of CDK4/D1 (P11802 whole entry): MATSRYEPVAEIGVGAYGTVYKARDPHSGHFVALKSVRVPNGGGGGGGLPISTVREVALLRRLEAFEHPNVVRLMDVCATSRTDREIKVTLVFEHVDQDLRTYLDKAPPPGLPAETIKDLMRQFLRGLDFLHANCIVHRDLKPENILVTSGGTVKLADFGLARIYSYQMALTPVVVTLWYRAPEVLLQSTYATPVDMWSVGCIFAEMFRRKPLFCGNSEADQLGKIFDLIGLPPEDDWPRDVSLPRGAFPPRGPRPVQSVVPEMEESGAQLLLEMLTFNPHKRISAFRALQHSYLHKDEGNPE
Sequence of CDK4/D1 (P24385 whole entry partner): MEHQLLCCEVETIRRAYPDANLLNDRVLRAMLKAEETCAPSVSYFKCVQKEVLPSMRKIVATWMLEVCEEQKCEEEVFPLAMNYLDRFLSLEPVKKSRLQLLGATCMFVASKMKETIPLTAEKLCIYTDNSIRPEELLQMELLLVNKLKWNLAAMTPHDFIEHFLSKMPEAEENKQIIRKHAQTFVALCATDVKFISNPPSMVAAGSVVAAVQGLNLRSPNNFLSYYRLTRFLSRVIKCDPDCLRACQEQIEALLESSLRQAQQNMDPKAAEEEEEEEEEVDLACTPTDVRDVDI

Row | Compound | GI50 (MV4-11 cells [1]) | GI50 (K562 cells [2]) | IC50 (CDK2/E) | IC50 (CDK4/D1) | IC50 (FLT3-ITD) | melting point | effect on cell cycle (G1 arrest) in K562 (K562 cells [3]) | effect on cell cycle (G1 arrest) in MV4-11 (MV4-11 cells [4]) | cells in the G1 phase, MV4-11 (MV4-11 cells [4]; increasing doses) | cell cycle changes in K562 (K562 cells [3]; different concentrations) | cells in the G1 phase, MOLM13 (MOLM13 cells) | affinity to oncogenic variants of FLT3 [5]
1 | CC(=O)c1c(C)c2cnc(Nc3ccc(N4CCNCC4)cn3)nc2n(C2CCCC2)c1=O [palbociclib, reference compound] | – | – | – | – | – | – | significantly arrest both cell lines in the G1 phase | significantly arrest both cell lines in the G1 phase | – | – | – | –
2 | CC(C)(C)c1cc(NC(=O)Nc2ccc(-c3cn4c(n3)sc3cc(OCCN5CCOCC5)ccc34)cc2)no1 [quizartinib, reference compound] | – | – | – | – | – | – | arrested selectively only MV4-11 | arrested selectively only MV4-11 | up to 90% | did not show any changes | up to 90% | –
3 | CN1CCN(c2ccc(Nc3ncc4cc5n(c4n3)C3(CCCCC3)CNC5=O)nc2)CC1 [trilaciclib] | – | – | – | – | – | – | – | – | – | – | – | low nanomolar affinity

Further lines, with some results ahead:

Row | GI50 (MV4-11 cells [1]) | GI50 (K562 cells [2]) | IC50 (CDK2/E) | IC50 (CDK4/D1) | IC50 (FLT3-ITD) | melting point | Compound | effect on cell cycle (G1 arrest) in K562 (K562 cells [3]) | effect on cell cycle (G1 arrest) in MV4-11 (MV4-11 cells [4]) | cells in the G1 phase, MV4-11 (MV4-11 cells [4]; increasing doses) | cell cycle changes in K562 (K562 cells [3]; different concentrations) | cells in the G1 phase, MOLM13 (MOLM13 cells) | affinity to oncogenic variants of FLT3 [5]
4 | 440 nM | 8.21 µM | 230 nM | 12 nM | 85 nM | 228 to 230 °C | CC1CCC(n2c(C(F)(F)F)nc3cnc(Nc4ccc(N5CCNCC5)cc4)nc32)CC1 (stereo not shown) [12c] | moderate G1 block | – | – | – | – | –
5 | 5650 nM | > 100 µM | > 20000 nM | > 20000 nM | 6900 nM | – | Cn1c(=O)[nH]c2nc(Nc3ccc(N4CCNCC4)cc3)ncc21 [14a] | – | did not significantly affect the cell cycle | – | – | – | –
6 | 1810 nM | 3.59 µM | > 1000 nM and 1020 nM | 338 nM | 75 nM | – | Cn1c(=O)n(C2CCCCCCCCCCC2)c2nc(Nc3ccc(N4CCNCC4)cc3)ncc21 [14j] | – | did not significantly affect the cell cycle | – | – | – | –
7 | 1250 nM | 16.7 µM | 540 nM | 1870 nM | 2940 nM | 152 to 154 °C | Cc1ccccc1-n1c(=O)n(C)c2cnc(Nc3ccc(N4CCNCC4)cc3)nc21 [14n] | – | did not significantly affect the cell cycle | – | – | – | –
